Reference: patent US12065445B2, “CDK2 inhibitors and methods of using the same” (Cedilla Therapeutics, Inc., priority 2021, dated 2024)

Legend:
CDK2/Cyclin E1 = target: T1, CDK2/Cyclin E1 (Homo sapiens, UniProt P24941); assay: CDK2/Cyclin E1 Caliper Assay (LabChip EZ Reader mobility shift); format: biochemical; settings: read-out: Caliper Assay (CDK2/CCNE1): IC50
T1 construct: purchased Eurofins 14-475
Method: Inhibition of CDK2/Cyclin E1 activity in the presence of compounds of the present disclosure was evaluated using a Caliper LabChip® EZ Reader mobility shift assay. In the assay, CDK2/Cyclin E1 (Eurofins, 14-475) catalyzed the phosphorylation of a fluorescently tagged peptide 5-FAM-QSPKKG-CONH2 (PerkinElmer, FL Peptide 18) which induced a difference in capillary electrophoresis mobility. The peptide substrate and product were measured, and the conversion ratio was used to determine the inhibition (as % activity and IC50 values) of CDK2/Cyclin E1. Reactions contained 50 mM HEPES pH 7.5, 10 mM MgCl2, 1 mM EDTA, 2 mM DTT, 0.01% Brij35, 0.5 mg/mL BSA, 0.1% DMSO, 2.5 nM CDK2/Cyclin E1, 100 μM ATP, and 1.5 μM fluorescent peptide substrate.
Dose titrations of inhibitors in 100% DMSO were combined with 3.25 nM CDK2/Cyclin E1 and 130 μM of ATP in reaction buffer. The mixtures were incubated for 30 minutes before the addition of fluorescent peptide substrate to initiate the kinase reaction. The final conditions were 2.5 nM CDK2/Cyclin E1, 100 μM ATP, and 1.5 μM fluorescent peptide. The reactions were stopped after 100 minutes with the addition of EDTA (400 mM final EDTA concentration). The stopped reactions were analyzed on a Caliper LabChip® EZ Reader II. The conversion ratios were normalized to yield % activity, plotted against compound concentration, and fit to a four-parameter equation to determine the IC50 for each compound.

Kuramochi cells = assay: BrdU Cell Proliferation Assay; format: cell-based; settings: read-out: BrdU - KURAMOCHI.1: IC50
Method in brief: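 Kuramochi cells were seeded at 2,000 cells/well, adhered overnight, then treated with a 10-point, 3-fold compound dilution series for 4 days. Proliferation was measured by a 1-hour BrdU pulse, anti-BrdU peroxidase colorimetric ELISA and 450 nm absorbance. Values were background-subtracted and normalized to DMSO wells.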

[1] = tested on: Kuramochi cells labeled with mApple-H2B; assay: IncuCyte Cell Proliferation Assay; format: cell-based; settings: 72 h
Method in brief: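 Cells imaged at 0 and 72 h after compound treatment (10 points, ½ log dilution, 20 μM top), with fluorescent nuclei counted. Fold change in count was normalized to DMSO wells and fitted to dose-response curves to give GI50.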

SMILES: CNC(=O)[C@@H](NC(=O)[C@@H]1CN(C(=O)c2cnco2)CC12CN(C(=O)[C@H]1CC1(C)C)C2)[C@@H](C)OCc1ccccc1 [I-39A]
- IC50 (CDK2/Cyclin E1): 0.1 to 1 µM
- IC50 (Kuramochi cells): > 10 µM

SMILES: CNC(=O)[C@@H](NC(=O)[C@@H]1CN(Cc2cccnc2)CC12CN(C(=O)[C@H]1CC1(C)C)C2)[C@@H](C)OCc1ccccc1 [I-49A]
- IC50 (CDK2/Cyclin E1): > 10 µM
- IC50 (Kuramochi cells): > 10 µM

SMILES: C[C@@H](OCc1ccccc1)[C@H](NC(=O)C1CN(C(=O)c2cnn(Cc3ccccc3)c2)CC12CN(C(=O)C1CC1(C)C)C2)C(=O)NCCCCCN (stereo partly shown) [I-57]
- IC50 (CDK2/Cyclin E1): 0.01 to 0.1 µM
- IC50 (Kuramochi cells): > 10 µM

SMILES: CNC(=O)[C@@H](NC(=O)[C@H]1CN(CC2CCOCC2)CC12CN(C(=O)[C@H]1CC1(C)C)C2)[C@@H](C)OCc1ccccc1 [I-68B]
- IC50 (CDK2/Cyclin E1): > 10 µM
- IC50 (Kuramochi cells): > 10 µM

SMILES: CNC(=O)[C@@H](NC(=O)[C@@H]1CN(C(=O)c2cnn(Cc3ccccc3)c2)CC12CN(C(=O)C1(C(C)C)CC1)C2)[C@@H](C)OCc1ccccc1 [I-109A]
- IC50 (CDK2/Cyclin E1): > 10 µM
- IC50 (Kuramochi cells): > 10 µM

SMILES: CNC(=O)[C@H](COCc1ccccc1)NC(=O)[C@H]1CN(C(=O)c2cnn(Cc3ccccc3)c2)CC12CN(C(=O)C1(C(F)(F)F)CC1)C2 [I-113B]
- IC50 (CDK2/Cyclin E1): > 10 µM
- IC50 (Kuramochi cells): > 10 µM

SMILES: C[C@@H](OCC1CCCCC1)[C@H](NC(=O)[C@@H]1CN(C(=O)c2cnn(Cc3ccccc3)c2)CC12CN(C(=O)[C@H]1CC1(C)C)C2)C(=O)N1CCC[C@H](N)C1 [I-150A]
- IC50 (CDK2/Cyclin E1): ≤ 0.01 µM
- IC50 (Kuramochi cells): 0.5 to 5 µM

SMILES: C[C@@H](OCC1CCCCC1)[C@H](NC(=O)[C@H]1CN(C(=O)c2cnn(Cc3ccccc3)c2)CC12CN(C(=O)[C@H]1CC1(C)C)C2)C(=O)N1CCC[C@H](N)C1 [I-150B]
- IC50 (CDK2/Cyclin E1): 1 to 10 µM
- IC50 (Kuramochi cells): > 10 µM

SMILES: C[C@@H]1C[C@H](C)CN(C(=O)[C@@H](NC(=O)[C@H]2CN(C(=O)c3cn[nH]c3)CC23CN(C(=O)[C@H]2CC2(C)C)C3)[C@@H](C)OCC2CCCCC2)C1 [I-173B]
- IC50 (CDK2/Cyclin E1): 1 to 10 µM
- IC50 (Kuramochi cells): > 10 µM

SMILES: C[C@@H](OCC1CCCCC1)[C@H](NC(=O)[C@H]1CN(C(=O)c2cncs2)CC12CN(C(=O)[C@H]1CC1(C)C)C2)C(=O)N1CCC(F)(F)CC1 [I-192B]
- IC50 (CDK2/Cyclin E1): 1 to 10 µM
- IC50 (Kuramochi cells): > 10 µM

SMILES: CNC(=O)[C@@H](NC(=O)[C@@H]1CN(C(=O)c2cncs2)CC12CN(C(=O)[C@H]1CC1(C)C)C2)[C@H](O)CC1CCCCC1 [I-379]
- IC50 (Kuramochi cells): > 10 µM
- IC50 [1]: > 20 µM

SMILES: C[C@@H](OCC1CCC(F)(F)CC1)[C@H](NC(=O)[C@@H]1CN(C(=O)c2cncs2)CC12CN(C(=O)[C@H]1CC1(C)C)C2)C(=O)N1CCC2(CC1)CC2 [I-380]
- IC50 (Kuramochi cells): ≤ 0.5 µM
- IC50 [1]: ≤ 0.5 µM

SMILES: Cc1ccc(CNC(=O)[C@H]2CN(C(=O)c3cnn(Cc4ccccc4)c3)CC23CN(C(=O)[C@H]2CC2(C)C)C3)nn1 [I-381]
- IC50 (Kuramochi cells): > 10 µM
- IC50 [1]: > 20 µM

SMILES: CC1(C)C[C@@H]1C(=O)N1CC2(CN(C(=O)c3cnn(Cc4ccccc4)c3)C[C@H]2C(=O)NC[C@H]2CC[C@H](C)CC2)C1 [I-382]
- IC50 (Kuramochi cells): > 10 µM
- IC50 [1]: > 20 µM

SMILES: C[C@@H](OCC1CCC(F)(F)CC1)[C@H](NC(=O)[C@@H]1CN(C(=O)c2cncs2)CC12CN(C(=O)[C@H]1CC1(C)C)C2)C(=O)N1CCC(O)CC1 [I-383]
- IC50 (Kuramochi cells): 5 to 10 µM
- IC50 [1]: 0.5 to 5 µM

SMILES: CNC(=O)[C@@H](NC(=O)[C@@H]1CN(C(=O)Cc2cnn(C)c2)CC12CN(C(=O)[C@H]1CC1(C)C)C2)[C@@H](C)OCc1ccccc1 [I-384]
- IC50 (Kuramochi cells): > 10 µM
- IC50 [1]: > 20 µM

SMILES: COC1CCN(C(=O)[C@@H](NC(=O)[C@@H]2CN(C(=O)c3cncs3)CC23CN(C(=O)[C@H]2CC2(C)C)C3)[C@@H](C)OCC2CCC(F)(F)CC2)CC1 [I-385]
- IC50 (Kuramochi cells): ≤ 0.5 µM
- IC50 [1]: ≤ 0.5 µM

SMILES: C[C@@H](OCC1CCC(F)(F)CC1)[C@H](NC(=O)[C@@H]1CN(C(=O)c2cncs2)CC12CN(C(=O)[C@H]1CC1(C)C)C2)C(=O)N1CCC(C)(C)CC1 [I-386]
- IC50 (Kuramochi cells): ≤ 0.5 µM
- IC50 [1]: ≤ 0.5 µM

SMILES: C[C@@H](OCC1CCC(F)(F)CC1)[C@H](NC(=O)[C@@H]1CN(C(=O)c2cncs2)CC12CN(C(=O)[C@H]1CC1(C)C)C2)C(=O)N1CCC(C(F)(F)F)CC1 [I-398]
- IC50 (Kuramochi cells): ≤ 0.5 µM
- IC50 [1]: ≤ 0.5 µM

SMILES: COC[C@H]1CCCN(C(=O)[C@@H](NC(=O)[C@@H]2CN(C(=O)c3cncs3)CC23CN(C(=O)C(C)(C)C2CC2)C3)[C@@H](C)OC(C)C2CCC(F)(F)CC2)C1 (stereo partly shown) [I-399]
- IC50 (Kuramochi cells): 0.5 to 5 µM
- IC50 [1]: 0.5 to 5 µM
